Patent US8802597B2, “Herbicidal pyrimidines” (E I du Pont de Nemours and Company, priority 2003, dated 2014)

Columns and labels:
Format in all cases: in vivo
wild oat (Avena fatua) = assay: Test B postemergence; settings: for Oat, Wild plant response rating: scale 0 to 100 (0 no effect, 100 complete control)
How it was run: (§1)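 Test chemicals in a non-phytotoxic solvent mixture with surfactant were applied preemergence to planted seeds and postemergence to plants 2 to 18 cm tall (1- to 4-leaf stage). After 13 to 15 days in a greenhouse, injury was visually rated against untreated controls on a 0 to 100 scale.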

[1] = tested on: blackgrass (Alopecurus myosuroides); assay: Test B postemergence; settings: for Blackgrass plant response rating: scale 0 to 100 (0 no effect, 100 complete control)
How it was run: as §1

[2] = tested on: cocklebur (Xanthium strumarium); assay: Test B pre/postemergence
How it was run: as §1

[3] = tested on: morningglory (Ipomoea coccinea); assay: Test B pre/postemergence
How it was run: as §1

[4] = tested on: velvetleaf (Abutilon theophrasti); assay: Test B pre/postemergence
How it was run: as §1

[5] = tested on: wheat (Triticum aestivum); assay: Test B pre/postemergence
How it was run: as §1

[6] = tested on: giant foxtail (Setaria faberii); assay: Test B pre/postemergence
How it was run: as §1

[7] = tested on: pigweed (Amaranthus retroflexus); assay: Test B pre/postemergence
How it was run: as §1

[8] = tested on: Surinam grass (Brachiaria decumbens); assay: Test B pre/postemergence
How it was run: as §1

corn (Zea mays) = assay: Test B pre/postemergence
How it was run: as §1

[9] = tested on: barnyardgrass (Echinochloa crus-galli); assay: Test B pre/postemergence
How it was run: as §1

[10] = tested on: crabgrass (Digitaria sanguinalis); assay: Test B pre/postemergence
How it was run: as §1

[11] = tested on: lambsquarters (Chenopodium album); assay: Test B pre/postemergence
How it was run: as §1

[12] = tested on: duck salad (Heteranthera limosa); assay: Test B flooded paddy test; settings: Flood, scale 0 to 100
How it was run: (§2)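 Plants were grown to the 2-leaf stage before treatment, then kept in a greenhouse for 13 to 15 days. Injury was rated visually against untreated controls on a 0 to 100 scale, where 0 is no effect and 100 is complete control.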

rice (Oryza sativa) = assay: Test B flooded paddy test; settings: Flood, scale 0 to 100
How it was run: as §2

[13] = tested on: umbrella sedge (Cyperus difformis); assay: Test B flooded paddy test; settings: Flood, scale 0 to 100
How it was run: as §2

[14] = tested on: barnyardgrass (Echinochloa crus-galli); assay: Test B flooded paddy test; settings: Flood
How it was run: as §2

[15] = Postemergence, 125 g ai/ha, scale 0 to 100 (0 no effect, 100 complete control)
[16] = Postemergence, 500 g ai/ha, scale 0 to 100
[17] = Preemergence, 125 g ai/ha, scale 0 to 100 (0 no effect, 100 complete control)
[18] = Preemergence, 500 g ai/ha, scale 0 to 100 (0 no effect, 100 complete control)
[19] = Postemergence, 62 g ai/ha, scale 0 to 100 (0 no effect, 100 complete control)
[20] = Preemergence, 62 g ai/ha, scale 0 to 100, 0 no effect, 100 complete control

CC(=O)NN=Cc1nc(C2CC2)nc(N)c1Br [Compound 51]
60: Plant response rating, Barnyardgrass [9, 16] | Plant response rating, Crabgrass [10, 16]
0: Plant response rating, Cocklebur [2, 17] | Plant response rating, Morningglory [3, 17] | Plant response rating, Velvetleaf [4, 17] | Plant response rating, Velvetleaf [4, 18] | Plant response rating, Wheat [5, 17] | Plant response rating, Wheat [5, 18] | Foxtail, Giant plant response rating [6, 15] | Plant response rating, Foxtail, Giant [6, 17] | Plant response rating, Foxtail, Giant [6, 18] | Surinam Grass plant response rating [8, 15] | Plant response rating, Surinam Grass [8, 17] | Plant response rating, Surinam Grass [8, 18] | Corn plant response rating (corn (Zea mays); [15]) | Plant response rating, Corn (corn (Zea mays); [16]) | Plant response rating, Corn (corn (Zea mays); [17]) | Plant response rating, Corn (corn (Zea mays); [18]) | Plant response rating, Barnyardgrass [9, 17] | Plant response rating, Barnyardgrass [9, 18] | Plant response rating, Crabgrass [10, 17] | Plant response rating, Crabgrass [10, 18] | Plant response rating, Ducksalad ([12]; 1000 g ai/ha) | Plant response rating, Rice (rice (Oryza sativa); 1000 g ai/ha) | Plant response rating, Sedge, Umbrella ([13]; 1000 g ai/ha) | Plant response rating, Barnyardgrass ([14]; 1000 g ai/ha, scale 0 (no effect) to 100 (complete control))
80: Cocklebur plant response rating [2, 15] | Morningglory plant response rating [3, 15] | Plant response rating, Velvetleaf [4, 16] | Pigweed plant response rating [7, 15] | Lambsquarters plant response rating [11, 15] | Plant response rating, Lambsquarters [11, 18]
40: Plant response rating, Morningglory [3, 18] | Plant response rating, Wheat [5, 16] | Plant response rating, Surinam Grass [8, 16]
90: Plant response rating, Cocklebur [2, 16] | Plant response rating, Morningglory [3, 16] | Plant response rating, Pigweed [7, 16] | Plant response rating, Lambsquarters [11, 16]
10: Plant response rating, Pigweed [7, 17]
70: Velvetleaf plant response rating [4, 15] | Plant response rating, Pigweed [7, 18]
30: Plant response rating, Oat, Wild (wild oat (Avena fatua); 500 g ai/ha, scale 0 to 100) | Plant response rating, Blackgrass ([1]; 500 g ai/ha, scale 0 to 100) | Wheat plant response rating [5, 15] | Plant response rating, Foxtail, Giant [6, 16] | Crabgrass plant response rating [10, 15]
20: Oat, Wild plant response rating (wild oat (Avena fatua); 125 g ai/ha) | Blackgrass plant response rating ([1]; 125 g ai/ha) | Plant response rating, Cocklebur [2, 18] | Barnyardgrass plant response rating [9, 15]

CCCOC(=O)c1nc(C2CC2)nc(N)c1Cl [Compound 75]
50: Oat, Wild plant response rating (wild oat (Avena fatua); 62 g ai/ha) | Blackgrass plant response rating ([1]; 62 g ai/ha) | Wheat plant response rating [5, 19] | Plant response rating, Corn (corn (Zea mays); [20])
100: Cocklebur plant response rating [2, 15] | Morningglory plant response rating [3, 19] | Morningglory plant response rating [3, 15] | Plant response rating, Morningglory [3, 17] | Velvetleaf plant response rating [4, 15] | Plant response rating, Velvetleaf [4, 17] | Plant response rating, Pigweed [7, 20] | Plant response rating, Pigweed [7, 17] | Lambsquarters plant response rating [11, 15] | Plant response rating, Lambsquarters [11, 20] | Plant response rating, Lambsquarters [11, 17]
10: Plant response rating, Sedge, Umbrella ([13]; 500 g ai/ha)
60: Oat, Wild plant response rating (wild oat (Avena fatua); 125 g ai/ha) | Blackgrass plant response rating ([1]; 125 g ai/ha) | Foxtail, Giant plant response rating [6, 19] | Corn plant response rating (corn (Zea mays); [19]) | Plant response rating, Barnyardgrass [9, 20]
90: Plant response rating, Cocklebur [2, 20] | Plant response rating, Cocklebur [2, 17] | Plant response rating, Foxtail, Giant [6, 17] | Pigweed plant response rating [7, 15] | Barnyardgrass plant response rating [9, 15] | Plant response rating, Crabgrass [10, 17] | Lambsquarters plant response rating [11, 19]
80: Plant response rating, Morningglory [3, 20] | Plant response rating, Velvetleaf [4, 20] | Foxtail, Giant plant response rating [6, 15] | Pigweed plant response rating [7, 19] | Surinam Grass plant response rating [8, 15] | Plant response rating, Surinam Grass [8, 17] | Plant response rating, Corn (corn (Zea mays); [17]) | Barnyardgrass plant response rating [9, 19] | Plant response rating, Barnyardgrass [9, 17] | Crabgrass plant response rating [10, 15] | Plant response rating, Crabgrass [10, 20]
30: Plant response rating, Wheat [5, 20] | Plant response rating, Foxtail, Giant [6, 20]
0: Plant response rating, Ducksalad ([12]; 125 g ai/ha) | Plant response rating, Rice (rice (Oryza sativa); 125 g ai/ha) | Plant response rating, Sedge, Umbrella ([13]; 125 g ai/ha) | Plant response rating, Barnyardgrass ([14]; 125 g ai/ha, scale 0 to 100)
70: Cocklebur plant response rating [2, 19] | Velvetleaf plant response rating [4, 19] | Wheat plant response rating [5, 15] | Plant response rating, Wheat [5, 17] | Surinam Grass plant response rating [8, 19] | Plant response rating, Surinam Grass [8, 20] | Corn plant response rating (corn (Zea mays); [15]) | Crabgrass plant response rating [10, 19] | Plant response rating, Ducksalad ([12]; 500 g ai/ha) | Plant response rating, Rice (rice (Oryza sativa); 500 g ai/ha) | Plant response rating, Barnyardgrass ([14]; 500 g ai/ha, scale 0 to 100)

CCCCOC(=O)c1nc(C2CC2)nc(N)c1Cl [Compound 76]
100: Plant response rating, Cocklebur [2, 17] | Morningglory plant response rating [3, 19] | Morningglory plant response rating [3, 15] | Plant response rating, Morningglory [3, 20] | Plant response rating, Morningglory [3, 17] | Pigweed plant response rating [7, 15] | Plant response rating, Pigweed [7, 20] | Plant response rating, Pigweed [7, 17] | Lambsquarters plant response rating [11, 19] | Lambsquarters plant response rating [11, 15] | Plant response rating, Lambsquarters [11, 17]
40: Plant response rating, Foxtail, Giant [6, 20] | Plant response rating, Barnyardgrass [9, 20]
50: Oat, Wild plant response rating (wild oat (Avena fatua); 62 g ai/ha) | Blackgrass plant response rating ([1]; 62 g ai/ha) | Corn plant response rating (corn (Zea mays); [19]) | Plant response rating, Rice (rice (Oryza sativa); 500 g ai/ha)
70: Wheat plant response rating [5, 15] | Plant response rating, Wheat [5, 17] | Surinam Grass plant response rating [8, 19] | Plant response rating, Surinam Grass [8, 20] | Corn plant response rating (corn (Zea mays); [15]) | Plant response rating, Corn (corn (Zea mays); [20]) | Crabgrass plant response rating [10, 19] | Plant response rating, Ducksalad ([12]; 500 g ai/ha) | Plant response rating, Sedge, Umbrella ([13]; 500 g ai/ha) | Plant response rating, Barnyardgrass ([14]; 500 g ai/ha, scale 0 to 100)
30: Plant response rating, Wheat [5, 20] | Plant response rating, Sedge, Umbrella ([13]; 125 g ai/ha)
80: Plant response rating, Cocklebur [2, 20] | Plant response rating, Velvetleaf [4, 20] | Foxtail, Giant plant response rating [6, 15] | Plant response rating, Foxtail, Giant [6, 17] | Surinam Grass plant response rating [8, 15] | Plant response rating, Corn (corn (Zea mays); [17]) | Plant response rating, Crabgrass [10, 20]
0: Plant response rating, Ducksalad ([12]; 125 g ai/ha) | Plant response rating, Rice (rice (Oryza sativa); 125 g ai/ha) | Plant response rating, Barnyardgrass ([14]; 125 g ai/ha, scale 0 to 100)
60: Oat, Wild plant response rating (wild oat (Avena fatua); 125 g ai/ha) | Blackgrass plant response rating ([1]; 125 g ai/ha) | Cocklebur plant response rating [2, 19] | Wheat plant response rating [5, 19] | Foxtail, Giant plant response rating [6, 19]
90: Cocklebur plant response rating [2, 15] | Velvetleaf plant response rating [4, 19] | Velvetleaf plant response rating [4, 15] | Plant response rating, Velvetleaf [4, 17] | Pigweed plant response rating [7, 19] | Plant response rating, Surinam Grass [8, 17] | Barnyardgrass plant response rating [9, 19] | Barnyardgrass plant response rating [9, 15] | Plant response rating, Barnyardgrass [9, 17] | Crabgrass plant response rating [10, 15] | Plant response rating, Crabgrass [10, 17] | Plant response rating, Lambsquarters [11, 20]
